Test results published in patent US20120115798A1, “METHOD FOR IMPROVING THE IMMUNITY OF A COMPANION ANIMAL” (priority 2010, published 2012).

Key:
Assay type in all cases: in vivo, dog (Labrador Retrievers)
[1] = test system: B cells; experiment: Lymphocyte blastogenesis (3H-thymidine), B cell mitogenic stimulation of PBMCs from dogs fed mannoheptulose diet
From the text: (§1) Phytohaemagglutinin (PHA), the lectin extract from the red kidney bean (Phaseolus vulgaris), contains potent, T-cell mitogenic activity (Hammerstrom, S. et al. (1982) Proc. Nall. Acad. Sci. USA 79, 1611-1615). Pokeweed mitogen (PWM), derived from Phytolacca Americana, is a B cell mitogen (Schreck et al., Annals of Clinical and Laboratory Science, Vol 12, Issue 6, 455-462). Together these three mitogens are used to stimulate immune cells in vitro in the lymphocyte blastogenesis assay, a well accepted indicator of immune response in vivo. Many studies have shown this assay to be responsive to the age-associated decline in immune system response (Goldrosen et al., 1977—Journal of surgical oncology 9: 229-234). A lower proliferative capacity indicates the immune cells cannot become activated and multiply as efficiently (a key step in the process of mounting an effective immune response).
Eighty (n=80) Labrador Retrievers were randomized by age, gender, and littermate to receive either a complete and nutritionally balanced control diet that is similar to Eukanuba Senior Large Breed or an experimental diet that is identical to the control diet except for the inclusion of mannoheptulose as disclosed below. The dogs were split into two study groups. […]

[2] = test system: T cells; experiment: Lymphocyte blastogenesis (3H-thymidine), T cell mitogenic stimulation of PBMCs from dogs fed mannoheptulose diet
From the text: as §1
Eighty (n=80) Labrador Retrievers were randomized by age, gender, and littermate to receive either a complete and nutritionally balanced control diet that is similar to Eukanuba Senior Large Breed or an experimental diet that is identical to the control diet except for the inclusion of mannoheptulose as disclosed below. The dogs were split into two study groups.
Study 1: A total of 39 older Labrador Retrievers are fed a nutritionally-balanced composition providing mannoheptulose at levels of 0 or about 2 mg/kg of body weight of the dog. Average age of the dogs (12 neutered males, 27 spayed females) at the start of a 4-year study is 6.7 years with a range of 5.1 to 8.2 years of age for the youngest and oldest dog within the cohort, respectively. The control composition is fed as a nutritionally-balanced composition, and it contains no mannoheptulose (0 mg/kg), avocado extract, avocado meal, or avocado concentrate. The test composition is the nutritionally-balanced control composition formulated with avocado extract, avocado meal, or avocado concentrate to provide mannoheptulose at a dose of about 2 mg/kg body weight of the dog. […]

[3] = test system: CD18+ immune cells; experiment: Flow cytometry of CD18+ immune cells in blood of dogs fed mannoheptulose diet; details: for CD18+ immune cells: analyzed by age
From the text: Eighty (n=80) Labrador Retrievers were randomized by age, gender, and littermate to receive either a complete and nutritionally balanced control diet that is similar to Eukanuba Senior Large Breed or an experimental diet that is identical to the control diet except for the inclusion of mannoheptulose as disclosed below. The dogs were split into two study groups. Study 1: A total of 39 older Labrador Retrievers are fed a nutritionally-balanced composition providing mannoheptulose at levels of 0 or about 2 mg/kg of body weight of the dog. Average age of the dogs (12 neutered males, 27 spayed females) at the start of a 4-year study is 6.7 years with a range of 5.1 to 8.2 years of age for the youngest and oldest dog within the cohort, respectively. The control composition is fed as a nutritionally-balanced composition, and it contains no mannoheptulose (0 mg/kg), avocado extract, avocado meal, or avocado concentrate. The test composition is the nutritionally-balanced control composition formulated with avocado extract, avocado meal, or avocado concentrate to provide mannoheptulose at a dose of about 2 mg/kg body weight of the dog. Older dogs are fed one-half their daily allotment of food at 0730 and 1430 each day. Dogs were fed to maintain body weight and body composition score (BCS) within a 2-4 score range. If food adjustments were made, they were made on a quarterly basis. All dogs were fasted overnight and morning meals were withheld until blood collections could be conducted for all immune measurements. Water is provided ad lib. Study 2: A total of 41 younger Labrador Retrievers are fed a nutritionally-balanced composition providing mannoheptulose at levels of 0 or about 2 mg/kg of body weight of the dog. Average age of the dogs (12 neutered males, 29 spayed females) at the start of the 36-month feeding study is 4.0 years with a range of 2.0 to 6.1 years of age for the youngest and oldest dog within the cohort, respectively. […] Cell populations were analyzed on a FACScan Flow Cytometer (Becton Dickinson) using CellQuest Pro Software.

[4] = test system: 8-OHdG; experiment: Serum 8-OHdG ELISA (DNA oxidation) in dogs fed mannoheptulose diet
From the text: 8-Oxo-2′-deoxyguanosine (8-OHdG) is an oxidized derivative of deoxyguanosine. 8-OHdG is one of the major products of DNA oxidation. As part of the immune response, T and B cells must proliferate (become activated and divide). A key step to robust proliferation is DNA replication. If cells have damaged DNA or must repair DNA, this crucial step can be hindered. […] By lowering DNA damage in the mannoheptulose fed dogs, immune cell replication would be facilitated, helping to enable a key step in the activation cascade of the immune system. Eighty (n=80) Labrador Retrievers were randomized by age, gender, and littermate to receive either a complete and nutritionally balanced control diet that is similar to Eukanuba Senior Large Breed or an experimental diet that is identical to the control diet except for the inclusion of mannoheptulose as disclosed below. The dogs were split into two study groups. Study 1: A total of 39 older Labrador Retrievers are fed a nutritionally-balanced composition providing mannoheptulose at levels of 0 or about 2 mg/kg of body weight of the dog. […] Amount of 8-OHDG is quantified using a commercially available ELISA kit from Oxis Health Products, catalog #21026. […] Add […] of the Stop Solution, mix, wait 3 minutes and read the absorbance at 450 nm.

[5] = summary table, aging dogs consuming diet with MH, direction of change

O=C(CO)[C@@H](O)[C@@H](O)[C@H](O)[C@H](O)CO [mannoheptulose]
B cell mitogenic stimulation to PWM ([1]; dog groups 1 and 2, mannoheptulose diet about 2 mg/kg vs control diet, FIGS. 7 and 8): either a statistical trend or a statistical improvement in B cell mitogenic stimulation to PWM
B cell proliferation [1, 5]: ↑
T cell mitogenic stimulation to ConA ([2]; dog groups 1 and 2, mannoheptulose diet about 2 mg/kg vs control diet, FIGS. 3 and 4): either a statistical trend or a statistical improvement in T cell mitogenic stimulation to ConA
T cell mitogenic stimulation to PHA ([2]; dog groups 1 and 2, mannoheptulose diet about 2 mg/kg vs control diet, FIGS. 5 and 6): either a statistical trend or a statistical improvement in T cell mitogenic stimulation to PHA
T cell proliferation [2, 5]: ↑
CD18+ immune cells ([3]; dog group 1 (older dogs), test diet delivering 2 mg mannoheptulose per kg body weight vs diet matched controls, FIG. 1): significant attenuation in the increase of CD18+ immune cells
CD18+ immune cells ([3]; dog group 2 (younger dogs), test diet with mannoheptulose about 2 mg/kg vs diet matched controls, FIG. 2): trend for attenuation in the increase of CD18+ immune cells
% CD18 + cells [3, 5]: ↓
serum 8-OHdG ([4]; dog group 1, mannoheptulose diet vs control diet, FIG. 9): significantly lower serum 8-OHdG
DNA damage [4, 5]: ↓
